Here are results for 13 compounds from patent US20210053957A1, “HERBICIDAL COMPOUNDS” (SYNGENTA PARTICIPATIONS AG, priority 2018, published 2021).

What all share (assay): Post-emergence efficacy, glasshouse spray test
What all share (format): in vivo

Assay [1] concerns Amaranthus palmeri (AMAPA). The note with it: Application Rate 500 g/Ha, evaluated after 13 days; for pest or weed control at 500 g/ha: Amaranthus palmeri, post-emergence, 312 h, read-out: Control of weed species after post-emergence application, AMAPA (100=total damage to plant; 0=no damage to plant). The method in brief:
(§1)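 Scoring 13 days after treatment ran 0 = no damage to 100 = plant killed. Spray solution: formula (I) dissolved in acetone with IF50 emulsifier/solvent mix, diluted with 0.25% or 1% sodium lauryl ether sulphate plus 1% ammonium sulphate, applied to 14-day-old glasshouse plants (24/16 °C, 14 h light, 65% humidity).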

The subject of assay [2] is Chenopodium album (CHEAL). The note with it: Application Rate 500 g/Ha, evaluated after 13 days; for pest or weed control at 500 g/ha: Chenopodium album, post-emergence, 312 h, read-out: Control of weed species after post-emergence application, CHEAL (100=total damage to plant; 0=no damage to plant). The method in brief: as §1
For assay [3], the system named is Digitaria sanguinalis (DIGSA). The note with it: Application Rate 500 g/Ha, evaluated after 13 days; for pest or weed control at 500 g/ha: Digitaria sanguinalis, post-emergence, 312 h, read-out: Control of weed species after post-emergence application, DIGSA (100=total damage to plant; 0=no damage to plant). The method in brief:
as §1

Assay [4] has as its system Echinochloa crus-galli (ECHCG). The note with it: Application Rate 500 g/Ha, evaluated after 13 days; for pest or weed control at 500 g/ha: Echinochloa crus-galli, post-emergence, 312 h, read-out: Control of weed species after post-emergence application, ECHCG (100=total damage to plant; 0=no damage to plant). An outline of the steps:
as §1

The test system of another assay is Eleusine indica (ELEIN). The note with it: Application Rate 500 g/Ha, evaluated after 13 days; for pest or weed control at 500 g/ha: Eleusine indica, post-emergence, 312 h, read-out: Control of weed species after post-emergence application, ELEIN (100=total damage to plant; 0=no damage to plant). The method in brief: as §1
Assay [5] deals with Euphorbia heterophylla (EPHHL). The note with it: Application Rate 500 g/Ha, evaluated after 13 days; for pest or weed control at 500 g/ha: Euphorbia heterophylla, post-emergence, 312 h, read-out: Control of weed species after post-emergence application, EPHHL (100=total damage to plant; 0=no damage to plant). An outline of the steps: as §1
Assay [6] has as its system Ipomoea hederacea (IPOHE). The note with it: Application Rate 500 g/Ha, evaluated after 13 days; for pest or weed control at 500 g/ha: Ipomoea hederacea, post-emergence, 312 h, read-out: Control of weed species after post-emergence application, IPOHE (100=total damage to plant; 0=no damage to plant). The method in brief:
as §1

Another assay concerns Lolium perenne (LOLPE). The note with it: Application Rate 500 g/Ha, evaluated after 13 days; for pest or weed control at 500 g/ha: Lolium perenne, post-emergence, 312 h, read-out: Control of weed species after post-emergence application, LOLPE (100=total damage to plant; 0=no damage to plant). The method in brief: as §1
For a further assay, the system named is Setaia fabei (SETFA). The note with it: Application Rate 500 g/Ha, evaluated after 13 days; for pest or weed control at 500 g/ha: Setaria faberi, post-emergence, 312 h, read-out: Control of weed species after post-emergence application, SETFA (100=total damage to plant; 0=no damage to plant). An outline of the steps:
as §1

For the compound `CC(C)c1csc(-c2cc[n+](CCS(=O)(=O)O)nc2)n1` [Compound A23], the “Control of weed species after post-emergence application, AMAPA (100=total damage to plant; 0=no damage to plant)” value in assay [1] was 50. Further, the “Control of weed species after post-emergence application, CHEAL (100=total damage to plant; 0=no damage to plant)” value in [2] is 10. Moreover, in assay [3], the “Control of weed species after post-emergence application, DIGSA (100=total damage to plant; 0=no damage to plant)” value was found to be 50. Moreover, the “Control of weed species after post-emergence application, ECHCG (100=total damage to plant; 0=no damage to plant)” value in [4] is recorded as 30. For the same compound, in the assay on Eleusine indica (ELEIN), the “Control of weed species after post-emergence application, ELEIN (100=total damage to plant; 0=no damage to plant)” value was 60. Moreover, the “Control of weed species after post-emergence application, EPHHL (100=total damage to plant; 0=no damage to plant)” value in assay [5] is 70. Also, in assay [6], the “Control of weed species after post-emergence application, IPOHE (100=total damage to plant; 0=no damage to plant)” value is on record as 30. The “Control of weed species after post-emergence application, LOLPE (100=total damage to plant; 0=no damage to plant)” value in the assay on Lolium perenne (LOLPE) came out at 40. Moreover, in the assay with Setaia fabei (SETFA), the “Control of weed species after post-emergence application, SETFA (100=total damage to plant; 0=no damage to plant)” value amounted to 40.

Consider `COP(=O)([O-])C[n+]1ccc(-c2ncco2)cn1` [Compound A103], for which the pest or weed control at 500 g/ha in [1] came to 70%; in assay [2], 40%; in assay [3], 90%; in assay [4], 70%; with Eleusine indica (ELEIN), 60%; in [5], 70%. Moreover, the figures for the pest or weed control at 500 g/ha (in assay [6]; with Lolium perenne (LOLPE); in the assay with Setaia fabei (SETFA)) were 40%, 30% and 80%, respectively.

Turning to `CC(C)(C)COS(=O)(=O)CC[n+]1ccc(-c2cocn2)cn1` [Compound A21, 2,2-dimethylpropyl 2-(4-oxazol-4-ylpyridazin-1-ium-1-yl)ethanesulfonate; 2,2,2-trifluoroacetate], the pest or weed control at 500 g/ha in [1] came out at 10%; in [2], 40%; in [3], 10%; in [4], 10%; in the assay with Eleusine indica (ELEIN), 10%; in [5] it was 40%. The pest or weed control at 500 g/ha came out at 10% in assay [6], 0% in the assay on Lolium perenne (LOLPE) and 10% in the assay with Setaia fabei (SETFA).

On to `Cn1nnc(-c2cc[n+](CCS(=O)(=O)O)nc2)n1` [Compound A11], for which the pest or weed control at 500 g/ha in assay [1] was found to be 100%; in assay [2], 90%; in assay [3] it was 90%; in assay [4] it was 100%; with Eleusine indica (ELEIN) it was 100%; in assay [5] it was 100%. The pest or weed control at 500 g/ha in assay [6] was 60%; in the assay on Lolium perenne (LOLPE), 80%; in the assay with Setaia fabei (SETFA), 100%.

For `O=S(=O)([O-])CCC[n+]1ccc(-c2ccon2)cn1` [Compound A59], the pest or weed control at 500 g/ha was 90% in assay [1]; 90% in [2]; 70% in assay [3]; 70% in assay [4]; 90% in the assay with Eleusine indica (ELEIN); 100% in [5]. Moreover, the values for the pest or weed control at 500 g/ha (in [6]; in the assay with Lolium perenne (LOLPE); in the assay with Setaia fabei (SETFA)) were 80%, 70% and 80%, respectively.

Regarding `Cc1nc(-c2cc[n+](CCS(=O)(=O)[O-])nc2)oc1C` [Compound A14], the pest or weed control at 500 g/ha in assay [1] came out at 100%; in assay [2], 40%; in [3], 50%; in assay [4] it was 40%; in the assay on Eleusine indica (ELEIN), 70%; in assay [5], 50%. Further, the pest or weed control at 500 g/ha was found to be 40% in assay [6], 40% with Lolium perenne (LOLPE) and 50% in the assay on Setaia fabei (SETFA).

With `CS(=O)(=O)C[N-]C(=O)CCC[n+]1ccc(-c2ncco2)cn1` [Compound A74], the pest or weed control at 500 g/ha in [1] turned out to be 100%; in assay [2], 90%; in assay [3] it was 90%; in assay [4], 40%; in the assay on Eleusine indica (ELEIN), 100%; in assay [5], 70%. Further, the results for the pest or weed control at 500 g/ha (in [6]; with Lolium perenne (LOLPE); in the assay on Setaia fabei (SETFA)) were 80%, 60% and 80%, respectively.

`O=S(=O)(O)CCCC[n+]1ccc(-c2ncco2)cn1` [Compound A68]: in assay [1], the “Control of weed species after post-emergence application, AMAPA (100=total damage to plant; 0=no damage to plant)” value is given as 100. In addition, the “Control of weed species after post-emergence application, CHEAL (100=total damage to plant; 0=no damage to plant)” value in assay [2] is 90. In addition, the “Control of weed species after post-emergence application, DIGSA (100=total damage to plant; 0=no damage to plant)” value in assay [3] is on record as 70. Further, the “Control of weed species after post-emergence application, ECHCG (100=total damage to plant; 0=no damage to plant)” value in assay [4] stood at 60. Besides, the “Control of weed species after post-emergence application, ELEIN (100=total damage to plant; 0=no damage to plant)” value in the assay on Eleusine indica (ELEIN) is listed as 70. In [5], the “Control of weed species after post-emergence application, EPHHL (100=total damage to plant; 0=no damage to plant)” value turned out to be 90. Moreover, the “Control of weed species after post-emergence application, IPOHE (100=total damage to plant; 0=no damage to plant)” value in [6] was found to be 50. Moreover, the “Control of weed species after post-emergence application, LOLPE (100=total damage to plant; 0=no damage to plant)” value in the assay on Lolium perenne (LOLPE) worked out at 70. For the same compound, in the assay with Setaia fabei (SETFA), the “Control of weed species after post-emergence application, SETFA (100=total damage to plant; 0=no damage to plant)” value is recorded as 80.

As to `O=P(O)(O)C[n+]1ccc(-c2ncco2)cn1` [Compound A102], the “Control of weed species after post-emergence application, AMAPA (100=total damage to plant; 0=no damage to plant)” value in assay [1] is on record as 100. The “Control of weed species after post-emergence application, CHEAL (100=total damage to plant; 0=no damage to plant)” value in assay [2] amounted to 90. Moreover, the “Control of weed species after post-emergence application, DIGSA (100=total damage to plant; 0=no damage to plant)” value in assay [3] was determined as 60. The “Control of weed species after post-emergence application, ECHCG (100=total damage to plant; 0=no damage to plant)” value in assay [4] came to 70. The “Control of weed species after post-emergence application, ELEIN (100=total damage to plant; 0=no damage to plant)” value in the assay on Eleusine indica (ELEIN) stood at 30. Also, the “Control of weed species after post-emergence application, EPHHL (100=total damage to plant; 0=no damage to plant)” value in assay [5] was 90. The “Control of weed species after post-emergence application, IPOHE (100=total damage to plant; 0=no damage to plant)” value in [6] is recorded as 60. Besides, in the assay on Lolium perenne (LOLPE), the “Control of weed species after post-emergence application, LOLPE (100=total damage to plant; 0=no damage to plant)” value worked out at 10. In addition, in the assay with Setaia fabei (SETFA), the “Control of weed species after post-emergence application, SETFA (100=total damage to plant; 0=no damage to plant)” value turned out to be 60.

For `Cc1cc(-c2cc[n+](CCS(=O)(=O)[O-])nc2)sn1` [Compound A35], the pest or weed control at 500 g/ha in [1] was found to be 100%; in assay [2], 100%; in assay [3] it was 50%; in [4], 50%; in the assay on Eleusine indica (ELEIN), 70%; in assay [5] it was 90%. In addition, the pest or weed control at 500 g/ha is 50% in [6], 70% with Lolium perenne (LOLPE) and 60% in the assay with Setaia fabei (SETFA).

Consider `O=S(=O)([O-])CC[n+]1ccc(-c2ncsn2)cn1` [Compound A143], for which the pest or weed control at 500 g/ha in assay [1] was 100%; in assay [2] it was 90%; in [3] it was 100%; in assay [4] it was 100%; with Eleusine indica (ELEIN) it was 100%; in [5], 100%. Also, the pest or weed control at 500 g/ha in assay [6] was determined as 60%; with Lolium perenne (LOLPE), 100%; with Setaia fabei (SETFA) it was 90%.

Take `O=C(O)CC[n+]1ccc(-c2cscn2)cn1` [Compound A100]: the pest or weed control at 500 g/ha in assay [1] amounted to 0%; in assay [2], 0%; in assay [3] it was 40%; in assay [4], 30%; in the assay with Eleusine indica (ELEIN), 30%; in assay [5] it was 30%. The pest or weed control at 500 g/ha in assay [6] was found to be 20%; with Lolium perenne (LOLPE) it was 10%; with Setaia fabei (SETFA), 30%.

Turning to `Cn1nncc1-c1cc[n+](CCC(=O)O)nc1` [Compound A48], the pest or weed control at 500 g/ha is 100% in assay [1]; 90% in assay [2]; 100% in [3]; 70% in assay [4]; 70% with Eleusine indica (ELEIN); 90% in assay [5]. In addition, the pest or weed control at 500 g/ha in assay [6] worked out at 90%; with Lolium perenne (LOLPE) it was 40%; with Setaia fabei (SETFA), 90%.
